Laboratory results published in patent US6908935B2, “Calcium receptor modulating agents” (Amgen Inc., priority 2002, dated 2005).

Each compound was assayed against T1, human parathyroid cell Ca^2+ receptor (hPCaR) (Homo sapiens, UniProt P41180) (assay: [Ca2+]i measurement with fluo-3 in HEK 293 4.0-7 cells stably transfected with hPCaR). Conditions: fluo-3 fluorescence (485/530 nm), effect on [Ca^2+]i.
T1 construct: expressed in transfected cells
T1 sequence (P41180 20-1078): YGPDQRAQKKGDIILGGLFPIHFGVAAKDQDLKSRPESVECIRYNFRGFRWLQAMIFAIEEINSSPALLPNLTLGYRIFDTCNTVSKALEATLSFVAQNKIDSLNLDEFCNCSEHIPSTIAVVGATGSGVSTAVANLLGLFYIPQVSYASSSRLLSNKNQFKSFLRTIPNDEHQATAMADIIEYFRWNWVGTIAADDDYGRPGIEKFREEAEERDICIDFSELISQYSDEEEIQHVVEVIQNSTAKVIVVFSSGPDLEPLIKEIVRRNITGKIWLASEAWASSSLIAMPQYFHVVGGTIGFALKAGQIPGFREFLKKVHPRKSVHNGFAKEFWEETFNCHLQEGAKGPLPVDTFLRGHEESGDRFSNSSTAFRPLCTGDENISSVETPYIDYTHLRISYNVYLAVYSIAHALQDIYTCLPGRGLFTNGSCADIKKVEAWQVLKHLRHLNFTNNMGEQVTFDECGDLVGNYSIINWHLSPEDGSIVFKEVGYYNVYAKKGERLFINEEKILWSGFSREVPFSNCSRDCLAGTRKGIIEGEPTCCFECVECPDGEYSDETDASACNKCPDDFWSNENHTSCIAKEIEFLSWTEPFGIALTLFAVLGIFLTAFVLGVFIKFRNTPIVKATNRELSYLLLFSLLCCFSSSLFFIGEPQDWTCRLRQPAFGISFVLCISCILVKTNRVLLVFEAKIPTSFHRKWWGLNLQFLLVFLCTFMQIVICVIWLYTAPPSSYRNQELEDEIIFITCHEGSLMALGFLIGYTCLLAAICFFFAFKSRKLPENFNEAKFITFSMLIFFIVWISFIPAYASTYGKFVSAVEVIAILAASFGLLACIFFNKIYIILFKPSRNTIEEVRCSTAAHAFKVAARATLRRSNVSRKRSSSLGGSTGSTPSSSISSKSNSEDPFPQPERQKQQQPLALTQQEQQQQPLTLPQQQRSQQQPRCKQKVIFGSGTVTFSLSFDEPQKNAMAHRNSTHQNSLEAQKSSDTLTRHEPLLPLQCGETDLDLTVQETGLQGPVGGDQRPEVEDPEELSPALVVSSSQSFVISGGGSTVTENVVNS
Type: cell-based
How it was run: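 Cytosolic [Ca2+] was read as fluo-3 fluorescence (ex 485/em 530 nm) after compound addition to washed cells. Cells were hPCaR-transfected HEK 293 clone 7, dye-loaded 30 min at 37 °C with 2 μM fluo-3 acetoxymethyl ester in HEPES-buffered saline pH 7.45 containing 1 mM CaCl2 and 0.5% BSA.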

Row | SMILES | EC50 [µM]
1 | COc1cccc([C@@H](C)NCc2ccc(OC)c(-c3ccoc3)c2)c1 [(1R)-N-((3-(3-furanyl)-4-(methyloxy)phenyl)methyl)-1-(3-(methyloxy)phenyl)ethanamine] | ≤ 10
2 | COc1ccc(CN[C@H](C)c2ccccc2)cc1-c1cccc(OC(F)(F)F)c1 [(1R)-N-((6-(methyloxy)-3′-((trifluoromethyl)oxy)-1,1′-biphenyl-3-yl)methyl)-1-phenylethanamine] | ≤ 10
3 | COc1ccc(CNC(C)c2cccc(OC(F)(F)F)c2)cc1-c1ccc(C(F)(F)F)cc1 (centres unmarked) [N-((6-(methyloxy)-4′-(trifluoromethyl)-1,1′-biphenyl-3-yl)methyl)-1-(3-((trifluoromethyl)oxy)phenyl)ethanamine] | ≤ 10
4 | Cc1ccc(-c2cccc(CN[C@H](C)c3ccc4ccccc4c3)c2)cn1 [(1R)-N-((3-(6-methyl-3-pyridinyl)phenyl)methyl)-1-(2-naphthalenyl)ethanamine] | ≤ 10
5 | COc1ccc(CN[C@H](C)c2ccccc2)cc1-c1ccsc1 [(1R)-N-((4-(methyloxy)-3-(3-thienyl)phenyl)methyl)-1-phenylethanamine] | ≤ 10
6 | COc1ccc(CN[C@H](C)c2ccccc2)cc1-c1nc2ccccc2s1 [(1R)-N-((3-(1,3-benzothiazol-2-yl)-4-(methyloxy)phenyl)methyl)-1-phenylethanamine] | ≤ 10
7 | COc1cccc([C@@H](C)NCc2ccc(OC)c(-c3ccc(C(F)(F)F)cc3)c2)c1 [(1R)-1-(3-(methyloxy)phenyl)-N-((6-(methyloxy)-4′-(trifluoromethyl)-1,1′-biphenyl-3-yl)methyl)ethanamine] | ≤ 10
8 | COc1cccc(-c2cccc(CN[C@H](C)c3cccc(OC)c3)c2)c1 [(1R)-N-((3′-(methyloxy)-1,1′-biphenyl-3-yl)methyl)-1-(3-(methyloxy)phenyl)ethanamine] | ≤ 10
9 | COc1ccc(CN[C@H](C)c2ccccc2)cc1-c1nccs1 [(1R)-N-((4-(methyloxy)-3-(1,3-thiazol-2-yl)phenyl)methyl)-1-phenylethanamine] | ≤ 10
10 | COc1ccc(CN[C@H](C)c2ccccc2)cc1-c1ccc2nccnc2c1 [(1R)-N-((4-(methyloxy)-3-(6-quinoxalinyl)phenyl)methyl)-1-phenylethanamine] | ≤ 10
11 | COc1cccc([C@@H](C)NCc2ccc(Cl)c(-c3cccnc3)c2)c1 [(1R)-N-((4-chloro-3-(3-pyridinyl)phenyl)methyl)-1-(3-(methyloxy)phenyl)ethanamine] | ≤ 10
12 | COc1cccc(-c2cccc(CN[C@H](C)c3ccccc3)c2)c1 [(1R)-N-((3′-(methyloxy)-1,1′-biphenyl-3-yl)methyl)-1-phenylethanamine] | ≤ 10
13 | C[C@@H](NCc1cccc(-c2ccc(C(F)(F)F)nc2)c1)c1cccc2ccccc12 [(1R)-1-(1-naphthalenyl)-N-((3-(6-(trifluoromethyl)-3-pyridinyl)phenyl)methyl)ethanamine] | ≤ 10
14 | Cc1ccc([C@@H](C)NCc2cccc(-c3ccccn3)c2)cc1 [(1R)-1-(4-methylphenyl)-N-((3-(2-pyridinyl)phenyl)methyl)ethanamine] | ≤ 10
15 | C[C@@H](NCc1cccc(-c2ccc(NC(=O)CCC(=O)O)nc2)c1)c1ccccc1 [4-oxo-4-((5-(3-((((1R)-1-phenylethyl)amino)methyl)phenyl)-2-pyridinyl)amino)butanoic acid] | ≤ 10
16 | COc1ccc(CN[C@H](C)c2ccccc2)cc1-c1cnccn1 [Example 238, (1R)-N-((4-(methyloxy)-3-(2-pyrazinyl)phenyl)methyl)-1-phenylethanamine] | ≤ 10
17 | COCCOc1cccc([C@@H](C)NCc2ccc(OC)c(-c3ccc(C(F)(F)F)cc3)c2)c1 [(1R)-1-(3-((2-(methyloxy)ethyl)oxy)phenyl)-N-((6-(methyloxy)-4′-(trifluoromethyl)-1,1′-biphenyl-3-yl)methyl)ethanamine] | ≤ 10
18 | COc1ccc(CN[C@H](C)c2ccccc2)cc1-c1ccc2nonc2c1 [(1R)-N-((3-(2,1,3-benzoxadiazol-5-yl)-4-(methyloxy)phenyl)methyl)-1-phenylethanamine] | ≤ 10
19 | COc1ccc(CN[C@H](C)c2ccc3ccccc3c2)cc1-c1ccc2[nH]ccc2c1 [(1R)-N-((3-(1H-indol-5-yl)-4-(methyloxy)phenyl)methyl)-1-(2-naphthalenyl)ethanamine] | ≤ 10
20 | CCN(CC)CCCOc1ccc(-c2cc(CN[C@H](C)c3cccc(OC)c3)ccc2OC)cn1 [N-((3-(6-((3-(diethylamino)propyl)oxy)-3-pyridinyl)-4-(methyloxy)phenyl)methyl)-N-((1R)-1-(3-(methyloxy)phenyl)ethyl)amine] | ≤ 10
21 | COc1ccc(CN[C@H](C)c2ccccc2)cc1-c1ccc2c(c1)ncn2C [(1R)-N-((3-(1-methyl-1H-benzimidazol-5-yl)-4-(methyloxy)phenyl)methyl)-1-phenylethanamine] | ≤ 10

Now from value to compound:

Row | EC50 [µM] | SMILES
22 | ≤ 10 | COCCOc1ccc(CN[C@H](C)c2cccc3ccccc23)cc1-c1ccc(C(F)(F)F)cc1 [(1R)-N-((6-((2-(methyloxy)ethyl)oxy)-4′-(trifluoromethyl)-1,1′-biphenyl-3-yl)methyl)-1-(1-naphthalenyl)ethanamine]
23 | ≤ 10 | COc1ccc(-c2cccc(CN[C@H](C)c3cccc4ccccc34)c2)cc1 [(1R)-N-((4′-(methyloxy)-1,1′-biphenyl-3-yl)methyl)-1-(1-naphthalenyl)ethanamine]
24 | ≤ 10 | CCOc1ccc(CN[C@H](C)c2ccccc2)cc1-c1ccc(OC)cc1 [(1R)-N-((6-(ethyloxy)-4′-(methyloxy)-1,1′-biphenyl-3-yl)methyl)-1-phenylethanamine]
25 | ≤ 10 | COc1cccc([C@@H](C)NCc2ccc(OC)c(-c3ccc(C(=O)O)o3)c2)c1 [5-(2-(methyloxy)-5-((((1R)-1-(3-(methyloxy)phenyl)ethyl)amino)methyl)phenyl)-2-furancarboxylic acid]
26 | ≤ 10 | COc1ccc(CN[C@H](C)c2ccccc2)cc1-c1ccc2ccn(C)c2c1 [(1R)-N-((3-(1-methyl-1H-indol-6-yl)-4-(methyloxy)phenyl)methyl)-1-phenylethanamine]
27 | ≤ 10 | C[C@@H](NCc1cccc(-c2nccs2)c1)c1cccc2ccccc12 [Example 217, (1R)-1-(1-naphthalenyl)-N-((3-(1,3-thiazol-2-yl)phenyl)methyl)ethanamine]
28 | ≤ 10 | COc1cccc([C@@H](C)NCc2ccc(OC)c(-c3cccc(C(N)=O)c3)c2)c1 [2′-(methyloxy)-5′-((((1R)-1-(3-(methyloxy)phenyl)ethyl)amino)methyl)-1,1′-biphenyl-3-carboxamide]
29 | ≤ 10 | COCC(=O)N1CCC(c2cc(CN[C@H](C)c3cccc4ccccc34)ccc2OC)CC1 [(1R)-N-((4-(methyloxy)-3-(1-((methyloxy)acetyl)-4-piperidinyl)phenyl)methyl)-1-(1-naphthalenyl)ethanamine]
30 | ≤ 10 | COc1ccc(CN[C@H](C)c2cccc3ccccc23)cc1-c1nc2ccccc2s1 [(1R)-N-((3-(1,3-benzothiazol-2-yl)-4-(methyloxy)phenyl)methyl)-1-(1-naphthalenyl)ethanamine]
31 | ≤ 10 | COc1ccc(-c2cc(CN[C@H](C)c3ccc4ccccc4c3)ccc2OC)nn1 [(1R)-N-((4-(methyloxy)-3-(6-(methyloxy)-3-pyridazinyl)phenyl)methyl)-1-(2-naphthalenyl)ethanamine]
32 | ≤ 10 | Cc1ccc(-c2cccc(CN[C@H](C)c3cccc4ccccc34)c2)cn1 [(1R)-N-((3-(6-methyl-3-pyridinyl)phenyl)methyl)-1-(1-naphthalenyl)ethanamine]
33 | ≤ 10 | C[C@@H](NCc1ccc(Cl)c(-c2ccc(C(F)(F)F)cc2)c1)c1cccc2ccccc12 [(1R)-N-((6-chloro-4′-(trifluoromethyl)-1,1′-biphenyl-3-yl)methyl)-1-(1-naphthalenyl)ethanamine]
34 | ≤ 10 | COc1ccc(CN[C@H](C)c2ccccc2)cc1-c1ccc(OCCN2CCCC2)nc1 [(1R)-N-((4-(methyloxy)-3-(6-((2-(1-pyrrolidinyl)ethyl)oxy)-3-pyridinyl)phenyl)methyl)-1-phenylethanamine]
35 | ≤ 10 | COc1ccc(CN[C@H](C)c2ccccc2)cc1-c1cccnc1OCC1CCCO1 (stereo partly drawn) [(1R)-N-((4-(methyloxy)-3-(2-((tetrahydro-2-furanylmethyl)oxy)-3-pyridinyl)phenyl)methyl)-1-phenylethanamine]
